Source: patent US9051572B2, “Modulators of Itch ubiquitinase activity” (RYBOQUIN COMPANY LIMITED, priority 2005, dated 2015)
Peptide text beside a SMILES is read from it. * marks the point of attachment. Cbz = O=C(OCc1ccccc1)*

Key:
Assay type in all cases: cell-based, human
[1] = test system: TAp73α; experiment: Steady state protein levels analysis with proteasome inhibitor in Hek293 cells co-transfected with Itch; settings: MG132 50 μM, 40 min
Experimental: The concentration of TAp73α, TAp73 ? and p53 was monitored by Western blotting. […] 25 μg of cell lysates were subjected to Western blotting. p73 proteins were detected by an anti-HA antibody. The same blots were re-probed with anti Myc antibody to detect Itch and with anti-Actin antibody to show equal loading.

[2] = test system: Itch; experiment: Western blot of endogenous Itch after DNA damaging agents in Saos-2 cells; settings: 24 and 48 hours, 2 μM doxorubicin, 15 μM etoposide, 5 μM cisplatin
Experimental: (§1) FIG. 7 Itch is down regulated by DNA damaging agents. Saos-2 cells were treated with 2 μM doxorubicin (Doxo) for 24 or 48 hours then collected by trypsinization. Cells were lysed for western blotting (A) and half of the cells were ethanol fixed for apoptosis analysis (B). Western blots were performed with either anti-Itch (upper panel) or anti-p73 (lower panel) antibodies. Blots were stripped and re-probed with anti Lamin B antibody to show equal loading. Apoptosis was evaluated by flow cytometric analysis of PI stained cells. Non-treated controls (N.T.) are shown. H1299 cells transfected with HA-TAp73 ? (Con) are loaded as a control for p73 western blot.
(D) Western blot using anti-Itch antibody on Saos-2 cells treated for 24 and 48 hours with either 15 μM etoposide (Etopo) or 5 μM cisplatin (Cisp). Non-treated control cells are also shown (N.T.). Blots were stripped and re-probed with anti p73 antibody and Lamin B antibody to show equal loading.
Proteins were separated on SDS-PAGE and blotted onto nitrocellulose membranes. Filters were blocked with TBST 5% non-fat dry milk and incubated with primary antibodies for 2 hrs at room temperature (RT). Filters were incubated for 1 hour at RT using the appropriate horseradish peroxidase-conjugated secondary antibody (rabbit and mouse BioRad; goat Santa Cruz). Detection was performed with the enhanced chemiluminescence Supersignal West Pico (Pierce). […] Endogenous Itch was detected with a mouse monoclonal antibody (BD Bioscience), Actin (sc-1615) polyclonal goat antibody (Santa Cruz), Lamin B (sc-6217) goat polyclonal antibody (Santa Cruz), Hsp70 (sc-1060) polyclonal goat antibody (Santa Cruz), β-Tubulin (sc-9104) polyclonal rabbit antibody (Santa Cruz), p21 (sc-756) polyclonal rabbit antibody (Santa Cruz), p53 DO-1 and Pab1801 monoclonal mouse antibodies (Santa Cruz). c-Myc-tagged constructs were detected or immuno-precipitated with the sc-40 monoclonal mouse antibody (Santa Cruz), HA-tagged with the sc-805 polyclonal rabbit antibody (Santa Cruz), and the Flag-tagged constructs with the M2 monoclonal mouse antibody (Sigma).

[3] = test system: TAp73; experiment: Western blot of endogenous p73 after doxorubicin in Saos-2 cells; settings: 2 μM doxorubicin, 24 or 48 hours
Experimental: as §1
Proteins were separated on SDS-PAGE and blotted onto nitrocellulose membranes. Filters were blocked with TBST 5% non-fat dry milk and incubated with primary antibodies for 2 hrs at room temperature (RT). Filters were incubated for 1 hour at RT using the appropriate horseradish peroxidase-conjugated secondary antibody (rabbit and mouse BioRad; goat Santa Cruz). Detection was performed with the enhanced chemiluminescence Supersignal West Pico (Pierce). Anti-p73 is a monoclonal antibody (ER15) (Neomarkers). […]

[4] = test system: Saos-2 cells; experiment: Apoptosis by flow cytometric analysis of PI stained cells after doxorubicin; settings: 2 μM doxorubicin, 24 or 48 hours
Experimental: as §1
Human embryonal kidney cells (Hek293), HeLa cells and MEFs were grown in Dulbecco's modified Eagle medium (DMEM) (GibcoBRL); the human lung carcinoma cells H1299 and the human osteosarcoma cells Saos-2 were cultured in RPMI (GibcoBRL). MEF Itch−/− cells were prepared from Itch−/− mice (Y—C-Liu) or they were generous gift from Neil Copeland, Lynda Matesic, Nancy Jenkins. All media were supplemented with 10% (v/v) fetal bovine serum (FBS) (GibcoBRL). Saos-2-TAp73 ? were a kind gift of K. Vousden (Nakano, 2000). Saos-2-ΔNp73 ? were generated as described before (Maisse et al., 2004). […] Apoptosis was analysed by flow cytometric evaluation of DNA fragmentation.

SMILES | steady state levels of TAp73α in presence of Itch [1] | endogenous Itch protein levels [2] | endogenous TAp73 levels [3] | apoptosis [4]
CC(C)C[C@@H](C=O)NC(=O)[C@H](CC(C)C)NC(=O)[C@H](CC(C)C)NC(=O)OCc1ccccc1 [MG132] (Cbz-Leu-Leu-Leu-aldehyde) | blocks the Itch-mediated TAp73α degradation | – | – | –
N.N.[Cl][Pt][Cl] [cisplatin] | – | dramatic reduction in Itch protein levels | – | –
COc1cc([C@@H]2c3cc4c(cc3[C@@H](O[C@@H]3O[C@@H]5CO[C@@H](C)O[C@H]5[C@H](O)[C@H]3O)[C@H]3COC(=O)[C@H]23)OCO4)cc(OC)c1O [etoposide] | – | dramatic reduction in Itch protein levels | – | –
COc1cccc2c1C(=O)c1c(O)c3c(c(O)c1C2=O)C[C@@](O)(C(=O)CO)C[C@@H]3O[C@H]1C[C@H](N)[C@H](O)[C@H](C)O1 [doxorubicin] | – | down-regulated | increase in endogenous TAp73 levels | increase in apoptosis
